From ChEMBL document CHEMBL3232753, “Synthesis and in vitro cytotoxic effect of 6-amino-substituted 11H- and 11Me-indolo[3,2-c]quinolines” (Eur J Med Chem, 2014)

Assays:
MV4-11 = assay: Cytotoxicity against human MV4-11 cells assessed as cell viability after 72 hrs by MTT assay; assay type: functional, cell-based; conditions: MV4-11, 72 h
BALB/3T3 = assay: Cytotoxicity against mouse BALB/3T3 cells assessed as cell viability after 72 hrs by SRB assay; assay type: cell-based; conditions: BALB/3T3, 72 h
A549 [1] = assay: Cytotoxicity against human A549 cells assessed as cell viability after 72 hrs by SRB assay; assay type: functional, cell-based; conditions: A549, 72 h
HCT-116 [2] = assay: Cytotoxicity against human HCT116 cells assessed as cell viability after 72 hrs by SRB assay; assay type: functional, cell-based; conditions: HCT-116, 72 h
Salmonidae = assay: Binding affinity to Salmon fish sperm DNA by UV-visible spectroscopy
A549 [3] = assay: Selectivity ratio of IC50 for human A549 cells to IC50 for human HCT116 cells; assay type: functional
HCT-116 [4] = assay: Selectivity ratio of IC50 for human MV4-11 cells to IC50 for human HCT116 cells; assay type: functional

| Compound | IC50 (MV4-11) [nM] | IC50 (BALB/3T3) [nM] | IC50 (A549 [1]) [nM] | IC50 (HCT-116 [2]) [nM] | K (Salmonidae) [×10⁶ L/mol] | Ratio IC50 (A549 [3]) | Ratio IC50 (HCT-116 [4]) |
| --- | --- | --- | --- | --- | --- | --- | --- |
| c1ccc2c(c1)nc(N1CCCNCC1)c1c3ccccc3[nH]c21 | 850 | 10100 | 2460 | 1730 | – | – | – |
| CC(CN)CNc1nc2ccc(Cl)cc2c2[nH]c3ccccc3c12 (configuration not stated) | 620 | – | – | – | – | – | – |
| CN(C)CCCNc1nc2ccccc2c2c1c1ccccc1n2C | 140 | 780 | 140 | 200 | – | – | – |
| Cn1c2ccccc2c2c(NCC(C)(C)CN)nc3ccccc3c21 | 150 | 700 | 540 | 130 | – | – | – |
| NCCCN1CCN(CCCNc2nc3ccccc3c3[nH]c4ccccc4c23)CC1 | 390 | 1150 | 760 | 980 | – | – | – |
| Cn1c2ccccc2c2c(NCCCN)nc3ccccc3c21 | 110 | 950 | 180 | 60 | – | – | – |
| Cc1ccc2nc(NCCCN)c3c4ccccc4n(C)c3c2c1 | 90 | 420 | 140 | 70 | – | – | – |
| Cn1c2ccccc2c2c(NCC(C)(C)CN)nc3ccc(Br)cc3c21 | 500 | – | – | – | – | – | – |
| CN(C)CCCNc1nc2ccc(Cl)cc2c2c1c1ccccc1n2C | 80 | 820 | 570 | 100 | 4.84 | – | – |
| OCCCNc1nc2ccccc2c2[nH]c3ccccc3c12 | 380 | 860 | 2210 | 260 | – | 7 | – |
| COc1ccc(Nc2nc3ccccc3c3[nH]c4ccccc4c23)c(OC)c1 | 7280 | – | – | – | – | – | – |
| Cn1c2ccccc2c2c(NCCCN)nc3ccc(Br)cc3c21 | 430 | – | – | – | – | – | – |
| NCCCNc1nc2ccc(Br)cc2c2[nH]c3ccccc3c12 | 650 | – | – | – | – | – | – |
| Clc1nc2ccccc2c2[nH]c3ccccc3c12 | 9140 | – | – | – | – | – | – |
| COc1ccc2nc(NCCCN)c3c4ccccc4[nH]c3c2c1 | 120 | 310 | 160 | 70 | – | – | 8 |
| c1ccc(CNc2nc3ccccc3c3[nH]c4ccccc4c23)cc1 | 770 | 8040 | 1990 | 1460 | – | – | – |
| COc1ccc2nc(NCCCN)c3c4ccccc4n(C)c3c2c1 | 100 | 100 | 110 | 10 | – | – | – |
| NCCCNc1nc2ccc(F)cc2c2[nH]c3ccccc3c12 | 590 | – | – | – | – | – | – |
| OCCNc1nc2ccccc2c2[nH]c3ccccc3c12 | 440 | 830 | 1450 | 190 | – | 7 | – |
| Cn1c2ccccc2c2c(NCCCN)nc3ccc(Cl)cc3c21 | 120 | 940 | 730 | 110 | – | – | – |
| Cc1ccc2nc(NCCCN)c3c4ccccc4[nH]c3c2c1 | 140 | 920 | 210 | 80 | – | – | 8 |
| NCCCNc1nc2cccc(Br)c2c2[nH]c3ccccc3c12 | 600 | – | – | – | – | – | – |

| Compound | IC50 (MV4-11) [nM] | IC50 (BALB/3T3) [nM] | IC50 (A549 [1]) [nM] | IC50 (HCT-116 [2]) [nM] | K (Salmonidae) [×10⁶ L/mol] | Ratio IC50 (A549 [3]) | Ratio IC50 (HCT-116 [4]) |
| --- | --- | --- | --- | --- | --- | --- | --- |
| Cn1c2ccccc2c2c(NCC(C)(C)CN)nc3ccc(Cl)cc3c21 | 560 | – | – | – | – | – | – |
| c1ccc(Nc2nc3ccccc3c3[nH]c4ccccc4c23)cc1 | 8370 | – | – | – | – | – | – |
| CC(C)(CN)CNc1nc2ccc(Cl)cc2c2[nH]c3ccccc3c12 | 590 | – | – | – | – | – | – |
| NCCCCCCNc1nc2ccccc2c2[nH]c3ccccc3c12 | 710 | 1070 | 1060 | 1080 | – | – | – |
| NCCCCNc1nc2ccccc2c2[nH]c3ccccc3c12 | 700 | 1140 | 1160 | 1060 | – | – | – |
| CCN(CC)CCCC(C)Nc1nc2ccccc2c2c1c1ccccc1n2C (configuration not stated) | 70 | 500 | 110 | 50 | – | – | – |
| c1ccc2c(c1)nc(NCC1CCCO1)c1c3ccccc3[nH]c21 (configuration not stated) | 750 | 3040 | 1400 | 1280 | – | – | – |
| NCCCCCNc1nc2ccccc2c2[nH]c3ccccc3c12 | 610 | 1010 | 1050 | 1060 | – | – | – |
| CN(C)CCCNc1nc2ccc(Br)cc2c2c1c1ccccc1n2C | 390 | – | – | – | – | – | – |
| NCCCNc1nc2ccc([N+](=O)[O-])cc2c2[nH]c3ccccc3c12 | 150 | 360 | 350 | 100 | – | – | – |
| Cn1c2ccccc2c2c(NCCCNC(=O)Nc3ccccc3)nc3ccccc3c21 | 570 | 6110 | 1190 | 820 | – | – | – |
| Cn1c2ccccc2c2c(NCCCN)nc3ccc(F)cc3c21 | 170 | 980 | 250 | 110 | – | – | – |
| NCCCNc1nc2ccc(Cl)cc2c2[nH]c3ccccc3c12 | 560 | – | – | – | – | – | – |
| NCCCNc1nc2ccccc2c2[nH]c3ccccc3c12 | 120 | 1050 | 170 | 260 | – | – | – |
| Cn1c2ccccc2c2c(Cl)nc3ccccc3c21 | 16600 | – | – | – | – | – | – |
| c1ccc2c(c1)nc(N1CCOCC1)c1c3ccccc3[nH]c21 | 9430 | – | – | – | – | – | – |
| CN1CCCN(c2nc3ccccc3c3[nH]c4ccccc4c23)CC1 | 740 | 8960 | 1970 | 1650 | – | – | – |
| Cn1c2ccccc2c2c(NCCCN)nc3ccc([N+](=O)[O-])cc3c21 | 50 | 80 | 110 | 10 | – | – | – |
| CN1CCCN(c2nc3ccccc3c3c2c2ccccc2n3C)CC1 | 960 | – | – | – | – | – | – |
| CN(C)CCCNc1nc2ccccc2c2[nH]c3ccccc3c12 | 410 | 1180 | 870 | 550 | 1.05 | – | – |
| CCN(CC)CCCC(C)Nc1nc2ccc(Cl)cc2c2c1c1ccccc1n2C (configuration not stated) | 570 | – | – | – | – | – | – |
